# Measured values taken from patent US20250197799A1, “CELLS DERIVED FROM POLYPEDILUM VANDERPLANKI AND ODOR SENSOR EQUIPPED THEREWITH” (University of Maryland, College Park, priority 2022, published 2025).
# Entries after “also recorded” stand apart in the source; their conditions may differ.
# Assays:
# [1] = molecular target: T1, Orco-Or47a (Drosophila melanogaster, UniProt P81921+Q9VNB5); experiment: Functional confirmation of exogenous membrane proteins in Orco-Or47a stable expression cell line; assay type: cell-based; parameters: remnant residues; expressed in transfected cells; settings: VUAA1 final 100 μM; pentyl acetate final 1 mM; DMSO negative control
# T1 sequence (Q9VNB5 1-486): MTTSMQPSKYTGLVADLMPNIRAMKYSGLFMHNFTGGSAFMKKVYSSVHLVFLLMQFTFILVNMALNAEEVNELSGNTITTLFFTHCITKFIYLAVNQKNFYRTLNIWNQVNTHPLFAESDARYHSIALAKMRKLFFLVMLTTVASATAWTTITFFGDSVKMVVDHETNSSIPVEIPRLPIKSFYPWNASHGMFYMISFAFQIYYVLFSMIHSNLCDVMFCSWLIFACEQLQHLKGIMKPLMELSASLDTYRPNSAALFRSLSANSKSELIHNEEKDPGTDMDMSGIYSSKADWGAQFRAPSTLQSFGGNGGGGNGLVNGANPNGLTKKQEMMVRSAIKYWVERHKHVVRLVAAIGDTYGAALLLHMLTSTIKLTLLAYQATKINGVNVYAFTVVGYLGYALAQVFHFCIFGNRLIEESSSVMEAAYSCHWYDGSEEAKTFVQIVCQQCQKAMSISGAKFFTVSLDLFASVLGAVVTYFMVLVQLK
# T1 sequence (P81921 1-385): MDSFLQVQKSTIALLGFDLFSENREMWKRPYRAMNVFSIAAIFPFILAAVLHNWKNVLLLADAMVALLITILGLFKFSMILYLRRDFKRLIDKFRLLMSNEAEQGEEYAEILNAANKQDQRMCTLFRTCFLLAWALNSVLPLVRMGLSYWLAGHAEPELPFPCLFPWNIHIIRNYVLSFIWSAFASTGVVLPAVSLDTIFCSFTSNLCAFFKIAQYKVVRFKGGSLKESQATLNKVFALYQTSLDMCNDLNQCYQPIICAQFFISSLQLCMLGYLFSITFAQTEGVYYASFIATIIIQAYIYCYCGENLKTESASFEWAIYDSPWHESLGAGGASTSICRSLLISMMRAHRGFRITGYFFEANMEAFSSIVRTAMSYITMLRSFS
# Experimental: 3.2 The functionality of GCaMP6f. The functionality of GCaMP6f in the resulting cell lines was evaluated using Ionomycin (Ionomycin; Fujifilm Wako Pure Chemical) to increase the intracellular concentration of calcium ions to provide functional confirmation of exogenous proteins in the GCaMP6f stable-expressing cell line. Ionomycin was dissolved in dimethyl sulfoxide (DMSO; Fujifilm Wako Pure Chemical Industries, Ltd.), adjusted to a final DMSO concentration of 1% and an ionomycin final concentration of 1 μM in IP1-41 medium, and added to the cell solution. As a negative control, DMSO was adjusted to a final concentration of 1% in IP 1-41 medium and added to the cell solution. Bright-field images and fluorescence images (ex: 470/40 nm; em: 525/50 nm) of the cells before and after solution addition were taken (all-in-one fluorescence microscope BZ-X710, Keyence). […] For statistical analysis of fluorescence intensity, one-way ANOVA was performed using Prism8 (GraphPad), followed by Tukey's multiple comparison test as a post-hoc test,
# 3.3 Functional confirmation of exogenous membrane proteins in cell lines with stable expression of Orco-Or47a. The amount of fluorescence expression was confirmed by the same operation as in 3.2 above. […] Fluorescence images were taken at an excitation wavelength/emission wavelength of 488 nm/525 nm. […]
# [2] = molecular target: T1, Orco-Or47a; experiment: Exogenous membrane protein function before drying and after drying-rehydration, Orco-Or47a stable expression cell line; assay type: cell-based; parameters: remnant residues; expressed in transfected cells; host or cells: Pv11 cells (Polypedilum vanderplanki), CRIS-PITCh knock-in at the Pv.00443 locus downstream of the 121 promoter, Zeocin selection and single-cell sorting
# Experimental: To assess the drought tolerance of the cell lines, the cells were dried according to the following protocol. 4×10^7 Pv11-GCaMP6f stable expression cell lines were centrifuged at 700 g for 3 minutes and the supernatant removed. The precipitated cells were suspended in a 600 mM trehalose mix of 600 mM trehalose and IPL-41 medium at a ratio of 9:1, transferred to a 2 ml flask, and incubated at 25° C. for 48 hours. After 48 hours, the obtained cells were centrifuged at 700 g for 3 minutes and the supernatant was removed. The sedimented cells were suspended in 400 μl of 600 mM trebalose mix, and 40 μl were dropped onto a 35 mm dish. The 35 mm dish was dried for 10 days under conditions of 25° C. and humidity of 10% or less.
# 6. Assessment of exogenous membrane protein function after drying-rehydration. Using the Orco stable expression cell line and Orco-Or47a stable expression cell line, in order to assess the function of exogenous membrane proteins before drying and after 1 hour of rehydration after drying, fluorescence intensity generated in response to stimulation with VUAA1 (Orco agonist) or pentyl acetate (ligand of Or47a) was measured in the same manner as in 3.2 above.
# The fluorescence intensity was digitized from the photograph, and ΔF/F was calculated according to the following formula:
# Where the summation Σi=1^n is over the n cells in the image, Fi,after means the fluorescence intensity of the cell i after adding the ligand solution, and Fi,0 means the fluorescence intensity of the cell i before adding the ligand solution.
# Specifically, a fluorescence image was taken under the condition in which the excitation wavelength/fluorescence wavelength was 488 nm/525 nm. In the fluorescence intensity quantification, the cells were identified in the photographed image, and the fluorescence intensity (F) was measured for each time. The initial values of fluorescence intensity (F0) were subtracted from the measured fluorescence intensity at each time to obtain the amount of change in fluorescence (ΔF), which was then normalized by dividing by the initial value of fluorescence intensity (F0) to obtain (Δ F/F0). A number of cells n were selected from the captured image, ΔF/F0 were produced for each, and the average value (including standard deviation, SD) of the results was graphed. For example, 25 cells were selected from the captured image, ΔF/F0 for each were produced, and the averaged results (including SD) were graphed. […] The Orco-Or47a stable expression cell line before drying responded to the Orco agonist (VUAA1) and the specific ligand of Or47a, pentyl acetate.
# [3] = 1 hour after drying and rehydration, compared to DMSO control
Structure (SMILES),fluorescence intensity [1],"response as change in fluorescence intensity (ΔF/F0) [2, 3]",response as change in fluorescence intensity (ΔF/F0) ([2]; before drying)
"CCc1ccc(NC(=O)CSc2nnc(-c3cccnc3)n2CC)cc1 [VUAA1, N-(4-ethylphenyl)-2-{[4-ethyl-5-(pyridin-3-yl)-4H-1,2,4-triazol-3-yl]sulfanyl}acetamide]",increase in fluorescence intensity was observed,significant difference in responsiveness; also recorded: fluorescence was observed,responded
CCCCCOC(C)=O [pentyl acetate],increase in fluorescence intensity was also observed,significant difference in responsiveness; also recorded: fluorescence was observed,responded
